Assay results reported in patent publication US20120078529A1, “DETERMINING THE SEVERITY OF 5-FLUOROURACIL OVERDOSE” (WELLSTAT THERAPEUTICS CORPORATION, priority 2009, published 2012).
“Also recorded” adds a separate entry of the source. Read-outs that look alike come from different tables or passages of the source.

Legend:
[1] = 5-fluorouracil toxicity severity score calculation; design: species or system human; details: base ten logarithms, dose in mg, administration rate in mg/hr
From the text: This invention provides a method of determining a 5-fluorouracil toxicity severity score for a patient receiving 5-fluorouracil, comprising calculating the square root of the sum of: (a) the square of the logarithm of the dose of 5-fluorouracil administered to the patient; and (b) the square of the logarithm of the administration rate of the 5-fluorouracil to the patient.
The severity score can be represented by the following equation:
Severity Score=[(log Dose)^2+(log Rate)^2]^1/2
Typically the logarithm is a base-ten logarithm (log10):
ti Severity Score=[(log10 Dose)^2+(log10 Rate)^2]^1/2
In accordance with this invention the dose and the dose rate can be expressed in any units, including all units that are conventional for expressing drug doses and dose rates. […] Whether they should receive vistonuridine should be evaluated on a case-by-case basis by the patient's physician. When units other than milligrams and mg/hr are utilized or a power relationship other than log10 is utilized in the calculation, the severity score will have a different numerical value and the skilled artisan can readily calculate the corresponding cut-offs distinguishing among lethal, seriously toxic but nonlethal, and nontoxic, doses. […]

5FU overdose [2] = details: cited from earlier work
[3] = cited from earlier work
lethal 5FU overdose = assay: Vistonuridine antidote after lethal 5FU overdose in mice; assay type: in vivo
Method: Uridine is a specific pharmacologic antidote for 5FU poisoning. It reduces 5FU toxicity when taken up prior to the onset of cell death. However uridine has poor oral bioavailability (about 7%). Vistonuridine (chemical name: 2′,3′,5′-tri-O-acetyluridine) is an oral prodrug of uridine. […] Vistonuridine is rapidly converted to circulating uridine by deacetylation (FIG. 2). It is an effective antidote against 5FU poisoning when administered up to 48 hours or more after a lethal 5FU overdose in mice, and up to 96 hours or more in humans. (See Example 1 below).

5FU overdose [4] = assay: Patients overdosed with 5FU treated with vistonuridine as an antidote; assay type: in vivo, human
Method: Seventeen patients overdosed with 5FU have been treated with vistonuridine as an antidote. Patients received vistonuridine (10 g q6h for 20 doses) beginning 8 to 96 hours after overdose. Data from 13 patients with similar 5FU overdoses provide the time course and outcomes for patients receiving available supportive care without vistonuridine. A severity score, integrating dose and infusion rate, was calculated for all the patients, and this tool could be used by healthcare workers to determine the expected severity and outcome of a 5FU overdose.
Wellstat Therapeutics Corporation was contacted by physicians of patients who had received 5FU overdoses, most due to infusion pump errors. Emergency Investigational New Drug approvals (INDs) were obtained from the U.S. Food and Drug Administration (FDA), and vistonuridine was promptly shipped or couriered to the clinics. Patients received vistonuridine beginning 8 to 96 hours after 5FU.

[5] = cited from earlier work; remark: listed apart in the source

O=c1[nH]cc(F)c(=O)[nH]1 [5FU, 5-Fluorouracil]
Severity score that indicates a lethal dose [1]: ≥ 4.5
Outcome of the 11 literature-reported 5FU overdose cases with predicted death (5FU overdose [2]; 11 cases, available supportive care, no vistonuridine): die from the overdose
Observed Outcome (5FU overdose [2]; individual 5FU overdose patient, best supportive care without vistonuridine): Death; also recorded: Recovered
Patients receiving 5FU who will develop a toxic reaction ([3]; about 275,000 US cancer patients receive 5FU annually, NIH estimate): about 3%
Patients who die each year from 5FU overexposure ([3]; human, in vivo): more than 1300 patients

CC(=O)OC[C@H]1O[C@@H](n2ccc(=O)[nH]c2=O)[C@H](OC(C)=O)[C@@H]1OC(C)=O [Vistonuridine, 2′,3′,5′-tri-O-acetyluridine]
Time after lethal 5FU overdose at which the antidote is still effective (lethal 5FU overdose): ≥ 48 h
Outcome of all 17 overdose patients treated with vistonuridine (5FU overdose [4]; 17 patients, most with relatively modest toxicity): recovered fully
Time after 5FU overdose at which the antidote is still effective (5FU overdose [4]; humans): ≥ 96 h
Observed Outcome (5FU overdose [4]; individual 5FU overdose patient, vistonuridine 10 g q6 hr for 20 doses beginning 8 to 96 hours after the 5FU overdose): Recovered

O=c1ccn([C@@H]2O[C@H](CO)[C@@H](O)[C@H]2O)c(=O)[nH]1 [uridine, Uridine]
Oral bioavailability [5]: about 7%
